The record followed here is patent US5747505A, “Heterocyclic aryl-, alkyl- and cycloalkylacetamides” (Bayer Aktiengesellschaft, priority 1995, dated 1998).

The assay relates to release of ApoB-100-associated lipoproteins from HepG2 cells. In words: Inhibition of the release of ApoB-100-associated lipoproteins from cultivated liver cells (HepG2), immunoassay for human LDL. The class given is cell-based. The note with it: substance concentration at which light absorption (450 nm) is inhibited by 50% vs solvent control. On the procedure: 1. Inhibition of the release of ApoB-100-associated lipopnoteins
The test for detecting the inhibition of the release of ApoB-100-associatedlipoproteins-from liver cells was carried out in vitro using cultivated liver cells, preferably using cells of the human line HepG2. These cells are grown under standard conditions in medium for the culture of eukaryotic cells, preferably in RPMI 1640 with 10% foetal calf serum. HepG2 cells synthesize and secrete into the culture supernatant ApoB-100-associated lipoprotein particles which in principle are constructed similarly to the VLDL and LDL particles which are to be found in the plasma.
These particles can be detected using an immunoassay for human LDL. This immunoassay is carried out using antibodies which have been induced against human LDL in the rabbit under standard conditions. The anti-LDL antibodies (rabbit anti-LDL Ab) were purified by affinity chromatography on an immunosorbent using human LDL. These purified rabbit anti-LDL Ab are adsorbed on the surface of plastic. Expediently, this adsorption takes place on the plastic surface of microtiter plates having 96 wells, preferably on MaxiSorp plates. If ApoB-100-associated particles are present in the supernatant of Hep-G2 cells, these can bind to the insolubilized rabbit anti-LDL Ab and an immune complex is formed which is bound to the plastic surface. Non-bound proteins are removed by washing. The immune complex on the plastic surface is detected using monoclonal antibodies which have been induced against human LDL and purified according to standard conditions. These antibodies were conjugated with the enzyme peroxidase. Peroxidase converts the colourless substrate TMB into a coloured product in the presence of H2 O2. After acidification of the reaction mixture with H2 SO4, the specific light absorption at 450 nm is determined, which is a measure of the amount of ApoB-100-associated particles which have been secreted into the culture supernatant by the HepG2 cells.
The IC50 value indicates at which substance concentration the light absorption is inhibited by 50% in comparison with the control (solvent control without substance).
`O=C(N[C@@H](CO)c1ccccc1)C(c1ccc(OCc2ccc3ccccc3n2)s1)C1CCCCCC1` (stereo partly drawn) [Example 1, 2-Cycloheptyl-N-(2-hydroxy-1(R)-phenylethyl)-2-[5-(quinoline-2-ylmethoxy)thiophen-2-yl]acetamide]: the IC50 is 195 nM.
In turn, `O=C(NCc1ccccc1)C(c1ccccc1)N1CCC(OCc2ccc3ccccc3n2)CC1` (stereo not shown) [Example 2] came in with an IC50 of over 2000 nM.
With `O=C(N[C@@H](CO)c1ccccc1)C(c1ccc(OCc2ccccc2Cl)cn1)C1CCCCCC1` (stereo partly shown) [Example 3] the figure was 71 nM; with `O=C(NCc1ccccc1)C(c1ccc(OCc2ccccc2Cl)cn1)C1CCCCCC1` (stereo not shown) [Example 4], 11 nM.
`O=C(N[C@@H](CO)c1ccccc1)C(c1ccc(OCc2ccc3ccccc3n2)cn1)C1CCCC1` (stereo partly shown) [Example 5] gave an IC50 of 622 nM.
In the case of `O=C(N[C@@H](CO)c1ccccc1)C(c1ccc(OCc2ccc3ccccc3n2)cn1)C1CCCCCC1` (stereo partly shown) [Example 6] it was 255 nM; in that of `O=C(N[C@@H](CO)c1ccccc1)C(c1ccc2cc(OCc3ccc4ccccc4n3)ccc2c1)C1CCCC1` (stereo partly shown) [Example 8], 1880 nM.
In the case of `O=C(NCC1CCCCC1)C(c1ccc2cc(OCc3ccc4ccccc4n3)ccc2c1)C1CCCC1` (stereo not shown) [Example 9] it was over 2000 nM; in that of `COc1cc(CNC(=O)C(c2ccc3cc(OCc4ccc5ccccc5n4)ccc3c2)C2CCCC2)ccc1O` (stereo not shown) [Example 10], over 2000 nM.
Regarding `O=C(N[C@H](CO)c1ccccc1)C(c1ccc2cc(OCc3ccc4ccccc4n3)ccc2c1)C1CCCC1` (stereo partly shown) [Example 11], the IC50 was over 2000 nM.
For `Cc1ccc(CNC(=O)C(c2ccc3cc(OCc4ccc5ccccc5n4)ccc3c2)C2CCCC2)cc1` (stereo not shown) [Example 12], the IC50 was over 2000 nM.
For the compound `O=C(N[C@@H](CO)c1ccccc1)[C@H](c1ccc(OCc2ccc3ccccc3n2)cn1)C1CCCCCC1` [Example 13], half-maximal inhibition (IC50) required 235 nM.
With `O=C(N[C@@H](CO)c1ccccc1)[C@@H](c1ccc(OCc2ccc3ccccc3n2)cn1)C1CCCCCC1` [Example 14] the figure was 235 nM.
